The target of series [1] is T1, 15-sLOX (Glycine max, UniProt P08170).
T1 sequence (P08170 1-839): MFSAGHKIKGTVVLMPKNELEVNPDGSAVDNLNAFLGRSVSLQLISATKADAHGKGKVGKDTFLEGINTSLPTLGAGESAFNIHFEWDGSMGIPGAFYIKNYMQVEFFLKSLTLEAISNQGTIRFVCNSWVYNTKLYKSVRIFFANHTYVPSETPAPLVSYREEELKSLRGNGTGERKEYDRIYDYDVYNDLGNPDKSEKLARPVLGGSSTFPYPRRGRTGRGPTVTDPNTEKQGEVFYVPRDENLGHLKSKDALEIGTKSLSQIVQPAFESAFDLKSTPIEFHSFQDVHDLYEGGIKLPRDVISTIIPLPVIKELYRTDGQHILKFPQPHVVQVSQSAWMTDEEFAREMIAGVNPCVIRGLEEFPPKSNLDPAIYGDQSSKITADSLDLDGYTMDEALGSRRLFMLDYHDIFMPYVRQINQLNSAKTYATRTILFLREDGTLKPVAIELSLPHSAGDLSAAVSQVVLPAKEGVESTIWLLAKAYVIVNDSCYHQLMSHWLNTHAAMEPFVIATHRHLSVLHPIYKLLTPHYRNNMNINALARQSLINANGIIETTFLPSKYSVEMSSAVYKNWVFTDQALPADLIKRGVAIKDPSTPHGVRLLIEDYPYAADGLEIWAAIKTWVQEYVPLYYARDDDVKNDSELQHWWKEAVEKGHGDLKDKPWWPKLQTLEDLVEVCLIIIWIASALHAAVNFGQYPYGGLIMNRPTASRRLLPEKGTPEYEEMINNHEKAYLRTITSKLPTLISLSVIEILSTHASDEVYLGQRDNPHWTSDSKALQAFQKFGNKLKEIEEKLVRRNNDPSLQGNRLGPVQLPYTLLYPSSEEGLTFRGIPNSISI
Kind of series: Kinetics parameters of 15s-LOX (UV 270 nm, Michaelis-Menten). The format is biochemical, Glycine max (soybean). The protocol: The activity of 15-sLOX was monitored on a Beckman Coulter DU730 Life Sciences UV-visible spectrometer at a wavelength of 270 nm monitoring the conjugated triene structure in the dihydroxylation products. For the measurements a reaction mixture of DHA or deuterated DHA (0.02 mM; 0.04 mM; 0.1 mM and 0.2 mM) was prepared in 750 µL sodium borate buffer (50 mM, pH 9) by ultrasonification for 10 s. The reaction was subsequently initiated by the addition of 10 µL 15-sLOX (4 mg/mL) to make a total volume of 760 µL in a Hellma CEL2056 quartz cuvette with 1 cm path length (20 °C). The initial reaction rates (V(0)), derived from the recorded UV-absorbance using the law of Lambert-Beer (molar extinction coefficient = 40,000), were plotted against the respective DHA concentrations and fitted to Michaelis-Menten kinetics in GraphPad Prism 7.0. All V(0) values were determined in triplicate and the average of three independent experiments was plotted against the substrate concentrations to yield Michaelis-Menten kinetics.

Series [2] addresses T1, 15-sLOX. In words: LC-MS/MS of 15s-LOX oxidized samples (product profile). The format is biochemical, Glycine max (soybean). The following applies: 0.1 mM substrate, 30 min reaction, room temperature. The protocol:
In order to gain insights on the nature of the produced metabolites, LC-MS/MS analysis of the reaction products were carried out. To this end, the respective DHA variants (0.1 mM) were incubated in a 2 mL eppendorf tube with 10 µL 15-sLOX (4 mg/mL) in sodium borate buffer (50 mM, pH 9) for 30 min at room temperature and the reaction quenched by the addition of cold MeOH (760 µL). The hydroperoxides were reduced with the addition of aq. SnCl2 (50 µL, 5 mg/mL) and subsequently the mixture was centrifuged (16,100 ×g for 5 min). Water (2 mL) was added to the supernatant, followed by the dropwise addition of glacial acetic acid (40 µL). The products were purified by SPE using SepPak 200 mg C18 cartridges (3CC), according to published protocols. The methyl formate eluates were evaporated to dryness, dissolved in MeOH (0.5 mL) and stored at −80 °C until analysis. The resulting solution was diluted 1000 times with MeOH for LC-MS/MS measurements. To 120 µL water, 72 µL of MeOH, 4 µL of the diluted solution and 4 µL of an internal standard (15-HETE-d8, Leukotriene LTB4-d4 and DHA-d5) was added. The samples were loaded in a SIL-30AC autosampler and the analytes separated on a Kinetex 1.7 µm C18 100Å, 50 × 2.1 mm LC column as described. The detection of DHA metabolites was performed in selected ion monitoring mode using several traces in order to take the eventual loss of a deuterium atom into account. The following traces were used: m/z 327.2, 343.2, 359.2 and 375.2 for DHA and its metabolites, m/z 327.2, 328.2, 329.2, 344.2, 345.2, 360.2, 361.2, 376.2, 377.2 for D2-DHA, m/z 331.2, 345.3, 346.2, 361.2, 362.3, 363.2, 377.2, 378.2 and 379.2 for D4-DHA and m/z 337.2, 352.2, 353.2, 367.2, 368.2, 369.2, 383.2, 384.2 and 385.2 for D10-DHA. Tandem mass spectra were recorded as product ion scans. Quantification of the metabolites was done by calculating the area ratio between the analyte and the internal standard (DHA-d5 for non-hydroxylated, 15-HETE-d8 for mono-hydroxylated and LTB4-d4 for di-hydroxylated derivatives) using Multiquant version 3.0.2.

The test system of series [3] is ARPE-19 cells. Kind of series: cells. The format is cell-based. Conditions: ARPE-19, H2O2 treatment 600 µM in 1% FBSM. The protocol:
ARPE-19 cells were obtained from ATCC, and maintained in Dulbecco’s Modified Eagle’s Medium (DMEM)/Ham F12 (GIBCO) containing 10% (v/v) fetal bovine serum (FBS) and 1% (v/v) penicillin/streptomycin under a humidified (95%)/CO2 (5%) atmosphere at 37 °C. For splitting and experiments, cells were dissociated with 0.25% trypsin-EDTA, re-suspended in the culture medium and then plated at 1–3 × 10^5 cells/mL. Cells were cultured and used up to a maximum of 10 passages.
(§1) Cell viability was determined by the MTT colorimetric assay. Cells were incubated for 2 h with MTT reagent (0.5 mg/mL). The absorbance at 570 nm and 655 nm of individual wells was measured using a microplate reader (BioRad 550). The percentage of viable cells was calculated as [(OD570 sample – OD655 sample)/(OD570 control – OD655 control)] × 100%.
ARPE-19 cells were plated into 96-well plates (3 × 10^4 cells/well) and cultured for 24 h to reach confluence before DHA treatment. The cells were treated in medium with 1% FBS (1% FBSM), or with H2O2 prepared in medium with FBS (1%, v/v) to a final concentration of 600 μM. Cells were then treated with DHA, D2-DHA and D4-DHA, at different concentrations (0–80 μm) for 24 h. Control cells were incubated with DMSO (0.2%). After 4 h, cell viability was determined in triplicate using the MTT colorimetric assay. Results were expressed in percentage of viable cells normalized with control conditions in the absence of PUFA and H2O2 stress.
Sigmoidal doses-responses linked to the toxicity were obtained using GraphPad prism software, allowing to calculate IC50 values described as the concentration leading to 50% of cell viability.

Series [4] deals with ARPE-19 cells. Kind of series: Protection of lipophenols against all-trans-retinal (MTT cell viability). The format is cell-based. The following applies: ARPE-19, pretreatment 80 µM 1 h, trans-retinal 25 µM 4 h, MTT after 20 h. The protocol: as §1
ARPE-19 cells were plated into 96-well plates (3 × 10^4 cells/well) and cultured for 24 h to reach confluence before lipophenol treatment. Cells were treated with serum free medium containing lipophenols at different concentrations (0–80 μM) for 1 h. Then all-trans-retinal was added to a final concentration of 25 μM for 4 h (in DMF), before rinsing with medium. Cell viability was determined 16–20 h later, in triplicate samples, using the MTT colorimetric assay. Control cells were incubated with DMSO (0.2%) and DMF (0.14%). The data are expressed as the percentage of untreated cells (CTL, without all-trans-retinal).

Series [5] concerns ARPE-19 cells. Kind of series: Lipid peroxidation status with C11-Bodipy581/591 probe (FACS) under oxidative conditions. The series is classed as cell-based. Conditions: ARPE-19, 50 µM for 24 h. The protocol: ARPE-19 cells were plated into 2 cm^2 wells (2 × 10^5 cells/well) and cultured for 24 h to reach confluence before PUFA or lipophenol treatment. The cell cultures were treated with 1% FBSM containing tested compounds (deuterated DHAs or deuterated lipophenols) at 50 μM for 24 h and then rinsed with media before the incubation of 5 µM C11-Bodipy^581/591 for 30 min. Then, the cells were rinsed and treated with the different stressors, corresponding to different protocols. For chemical stress the cells were incubated with 400 µM of H2O2 during 24 h followed by FACS analysis. For photobleaching stress, the cells were exposed to a white LED lamp with an intensity of 5000 lux at room temperature during 1 h followed by the FACS analysis.
FACS was performed with the BD Accuri C6 Flow Cytometer and BD Accuri C6 Software for data acquisition (BD Biosciences). This flow cytometer is equipped with an excitation laser at 488 nm, and a fluorescence detector FL1 533/30 nm. Data were collected to 10,000 events for each sample using a flow rate of 35 µL/min. Parameters obtained for data analysis included: cell size from the forward scatter (FSC), granularity from the side scatter (SSC) and the green fluorescence of the stained cells with C11-Bodipy^581/591.
First the SSC-A versus FSC-A dot-plot was used to gate the cellular population and remove the cellular debris. Then the SSC-A versus SSC-H dot-plot was used to remove cell doublets in the previous gate to give a final gate. The cellular population in the last gate designed was plotted on count versus log green fluorescence to give the fluorescence mean intensity of FL1. The mean FL1 values were normalized to the cells only stained with C11-Bodipy^581/591.

The mark [6] stands for this setting: serum starvation (1% FBSM) 48 h.

This note sets out measurements from paper PMC6826779, “Bis-allylic Deuterated DHA Alleviates Oxidative Stress in Retinal Epithelial Cells” (Antioxidants, 2019).

As to `CC/C=C\C/C=C\C/C=C\C/C=C\C/C=C\C/C=C\CCC(=O)O` [D10-DHA], on 15-sLOX [1] (15s-LOX, substrate 0.02-0.2 mM, borate buffer pH 9, 20 °C, 270 nm), the Km (as a rule, the concentration of substrate that gives half-maximal velocity) amounted to 3.27 µM.
Turning to `[2H]C([2H])(/C=C\CC)/C=C\C([2H])([2H])/C=C\C([2H])([2H])/C=C\C([2H])([2H])/C=C\C([2H])([2H])/C=C\CCC(=O)O` [D10-DHA], the “fold decrease in the Vmax value” on 15-sLOX [1] (15s-LOX, compared with the other DHAs) is listed as “more than 10 fold”. Also, on 15-sLOX [1] (monitored at 270 nm), the “15s-LOX activity for the double hydroxylation product” value was “significantly reduced activity”. Besides, the “pre-dominant product of 15-sLOX oxidation (LC-MS)” value at 15-sLOX [2] is on record as “vast excess obtained for 17S-HDHA”.
On to `OO` [H2O2, Hydrogen peroxide, reference compound], for which the cell mortality with ARPE-19 cells [3] is listed as 60–70%.
Take `[2H]C([2H])(/C=C\C/C=C\C/C=C\C/C=C\C/C=C\CC)/C=C\CCC(=O)Oc1cc(O)cc(OC(C)C)c1` [IP-D2-DHA, phloroglucinol-OiPr-O-(6,6-D2)-DHA]: the “increase in cell viability against all-trans-retinal” value (“increase in cell viability” for short) in the series on ARPE-19 cells [4] is recorded as 52%. For the same molecule, in the series with ARPE-19 cells [5] (setting [6]), the “lipid peroxidation status (C11-BODIPY fluorescence)” value is recorded as “slight but significant decrease in lipid peroxidation”.
For `[2H]C([2H])(C=CCC=CCC=CCC=CCC)C=CC([2H])([2H])C=CCCC(=O)Oc1cc(O)cc(OC(C)C)c1` [IP-D4-DHA, phloroglucinol-OiPr-O-(6,6,9,9-D4)-DHA], the “increase in cell viability” value in the series with ARPE-19 cells [4] was 47%. The “lipid peroxidation status (C11-BODIPY fluorescence)” value in the series with ARPE-19 cells [5] (serum starvation (1% FBSM) 24 h) was “decreased lipid peroxidation compared to IP-DHA and IP-D2-DHA”; in the series with ARPE-19 cells [5] (setting [6]), “slight but significant decrease in lipid peroxidation”; in the series with ARPE-19 cells [5] (then H2O2 400 µM 24 h) it was “decreased the lipid peroxidation status relative to IP-DHA and IP-D2-DHA”; in the series with ARPE-19 cells [5] (then photobleaching (white light, 5000 lux, 1 h)), “reduction of lipid oxidation”.
Consider `CC/C=C\C/C=C\C/C=C\C/C=C\C/C=C\C/C=C\CCC(=O)Oc1cc(O)cc(OC(C)C)c1` [IP-DHA], for which, in the series with ARPE-19 cells [4], the “increase in cell viability” value amounted to 42%.
